For series [1] the following is noted: limosilactobacillus reuteri cf48-3a, 12 h, 2 µM.
Description: The drug is tested on Lactobacillus reuteri CF48-3A strain: BEI HM-102 for biotransformation. The drug concentrations were measured before and after a 12-h incubation by liquid-chromatography-coupled mass spectrometry (LC–MS)
Series [2] can be described thus: The drug is tested on Coprococcus comes strain: ATCC27758 for biotransformation. The drug concentrations were measured before and after a 12-h incubation by liquid-chromatography-coupled mass spectrometry (LC–MS). Type of series: ADME. The arrangement: dose 2 uM, timepoint 0 vs 12 hours. Conditions: 2 µM.
The nature of series [3]: The drug is tested on Blautia hansenii strain: DSM20583 for biotransformation. The drug concentrations were measured before and after a 12-h incubation by liquid-chromatography-coupled mass spectrometry (LC–MS). Conditions: 2 µM.
Series [4] is described as follows: The drug is tested on Bacteroides fragilis strain: HMW610 for biotransformation. The drug concentrations were measured before and after a 12-h incubation by liquid-chromatography-coupled mass spectrometry (LC–MS). As to conditions: 2 µM.
The conditions of series [5]: bacteroides fragilis, 12 h, 2 µM.
Description: The drug is tested on Bacteroides fragilis strain: NCTC 9343 for biotransformation. The drug concentrations were measured before and after a 12-h incubation by liquid-chromatography-coupled mass spectrometry (LC–MS)
Series [6] in a line: The drug is tested on Dorea formicigenerans strain: ATCC27755 for biotransformation. The drug concentrations were measured before and after a 12-h incubation by liquid-chromatography-coupled mass spectrometry (LC–MS). Conditions: 2 µM.
Series [7] in a line: The drug is tested on Odoribacter splanchnicus strain: fecal isolate for biotransformation. The drug concentrations were measured before and after a 12-h incubation by liquid-chromatography-coupled mass spectrometry (LC–MS). Conditions: 2 µM.

On to `CN(C)C(=O)Oc1cc(OC(=O)N(C)C)cc(C(O)CNC(C)(C)C)c1` (stereo not drawn) [BAMBUTEROL], for which the “Bacterial Biotransformation” value in series [1], in series [2], in series [3], in series [4], in series [5] and in series [6] was “Compound NOT metabolized” in each case. Also, the “Bacterial Biotransformation” value in series [7] was “Compound NOT metabolized”.
Regarding `CCOC(=O)[C@H](CCc1ccccc1)N[C@H]1CCc2ccccc2N(CC(=O)O)C1=O` [BENAZEPRIL], the “Bacterial Biotransformation” value is listed as “Compound NOT metabolized” in series [1]; “Compound NOT metabolized” in series [2]; “Compound NOT metabolized” in series [3]; “Compound metabolized” in series [4]; “Compound NOT metabolized” in series [5]; “Compound NOT metabolized” in series [6]. For the same compound, the “Bacterial Biotransformation” value in series [7] is “Compound metabolized”.
As to `CC(C)(Oc1ccc(CCNC(=O)c2ccc(Cl)cc2)cc1)C(=O)O` [BEZAFIBRATE], the “Bacterial Biotransformation” value in series [1] is on record as “Compound metabolized”; in series [2] it was “Compound metabolized”; in series [3], “Compound NOT metabolized”; in series [4] it was “Compound metabolized”; in series [5] it was “Compound metabolized”; in series [6] it was “Compound metabolized”. The “Bacterial Biotransformation” value in series [7] is “Compound metabolized”.
In the case of `CC(NC(C)(C)C)C(=O)c1cccc(Cl)c1` (stereo not drawn) [BUPROPION], the “Bacterial Biotransformation” value in series [1], in series [2], in series [3], in series [4], in series [5] and in series [6] was “Compound NOT metabolized” throughout. Moreover, the “Bacterial Biotransformation” value in series [7] is “Compound metabolized”.
As for `COc1ccccc1OCCNCC(O)COc1cccc2[nH]c3ccccc3c12` (stereo not drawn) [CARVEDILOL], the “Bacterial Biotransformation” value is listed as “Compound NOT metabolized” in series [1]; “Compound NOT metabolized” in series [2]; “Compound metabolized” in series [3]; “Compound NOT metabolized” in series [4]; “Compound metabolized” in series [5]; “Compound NOT metabolized” in series [6]. Besides, the “Bacterial Biotransformation” value in series [7] was “Compound NOT metabolized”.
With `CC(C)(C)NCC(O)c1cc(Cl)c(N)c(Cl)c1` (stereo not drawn) [CLENBUTEROL], the “Bacterial Biotransformation” value in series [1], in series [2], in series [3], in series [4], in series [5] and in series [6] was “Compound NOT metabolized” throughout. The “Bacterial Biotransformation” value in series [7] is recorded as “Compound NOT metabolized”.
On to `COC(=O)[C@H](c1ccccc1Cl)N1CCc2sccc2C1.O=S(=O)(O)O` [CLOPIDOGREL BISULFATE], for which the “Bacterial Biotransformation” value in series [1] is “Compound NOT metabolized”; in series [2], “Compound NOT metabolized”; in series [3] it was “Compound metabolized”; in series [4], “Compound metabolized”; in series [5], “Compound metabolized”; in series [6], “Compound NOT metabolized”. In series [7], the “Bacterial Biotransformation” value is “Compound metabolized”.
On to `CN1CCN(C2=Nc3cc(Cl)ccc3Nc3ccccc32)CC1` [CLOZAPINE], for which the “Bacterial Biotransformation” value in series [1], in series [2], in series [3], in series [4], in series [5] and in series [6] was “Compound NOT metabolized” each time. The “Bacterial Biotransformation” value in series [7] is given as “Compound NOT metabolized”.
As to `COc1cc2c(c(OC)c1OC)-c1ccc(OC)c(=O)cc1[C@@H](NC(C)=O)CC2` [COLCHICINE], the “Bacterial Biotransformation” value is given as “Compound NOT metabolized” in series [1]; “Compound NOT metabolized” in series [2]; “Compound metabolized” in series [3]; “Compound metabolized” in series [4]; “Compound metabolized” in series [5]; “Compound NOT metabolized” in series [6]. For the same compound, the “Bacterial Biotransformation” value in series [7] was “Compound metabolized”.
Turning to `CN(C)CCC=C1c2ccccc2C=Cc2ccccc21` [CYCLOBENZAPRINE], the “Bacterial Biotransformation” value in series [1] is given as “Compound NOT metabolized”; in series [2] it was “Compound NOT metabolized”; in series [3], “Compound metabolized”; in series [4] it was “Compound NOT metabolized”; in series [5], “Compound NOT metabolized”; in series [6], “Compound NOT metabolized”. For the same compound, the “Bacterial Biotransformation” value in series [7] is listed as “Compound NOT metabolized”.
On to `CC(=O)O[C@]1(C(C)=O)CC[C@H]2[C@@H]3C=C(Cl)C4=CC(=O)[C@@H]5C[C@@H]5[C@]4(C)[C@H]3CC[C@@]21C` [CYPROTERONE ACETATE], for which the “Bacterial Biotransformation” value is “Compound NOT metabolized” in series [1]; “Compound NOT metabolized” in series [2]; “Compound metabolized” in series [3]; “Compound metabolized” in series [4]; “Compound metabolized” in series [5]; “Compound NOT metabolized” in series [6]. For the same compound, in series [7], the “Bacterial Biotransformation” value is “Compound metabolized”.
For the compound `CCOc1ccc2nc(S(N)(=O)=O)sc2c1` [ETHOXZOLAMIDE], the “Bacterial Biotransformation” value is “Compound metabolized” in series [1]; “Compound metabolized” in series [2]; “Compound metabolized” in series [3]; “Compound NOT metabolized” in series [4]; “Compound metabolized” in series [5]; “Compound metabolized” in series [6]. In addition, the “Bacterial Biotransformation” value in series [7] was “Compound metabolized”.
`CC[C@@H](CO)NC(=O)[C@@H]1C=C2c3cccc4c3c(cn4C)C[C@H]2N(C)C1.O=C(O)/C=C\C(=O)O` [METHYSERGIDE MALEATE]: the “Bacterial Biotransformation” value is on record as “Compound metabolized” in series [1]; “Compound metabolized” in series [2]; “Compound metabolized” in series [3]; “Compound NOT metabolized” in series [4]; “Compound metabolized” in series [5]; “Compound metabolized” in series [6]. The “Bacterial Biotransformation” value in series [7] is “Compound metabolized”.
As to `CC[C@H](C)C(=O)O[C@H]1CCC=C2C=C[C@H](C)[C@H](CC[C@@H]3C[C@@H](O)CC(=O)O3)[C@H]21` [MEVASTATIN], the “Bacterial Biotransformation” value in series [1] is “Compound metabolized”; in series [2], “Compound metabolized”; in series [3], “Compound metabolized”; in series [4], “Compound NOT metabolized”; in series [5], “Compound metabolized”; in series [6], “Compound metabolized”. In series [7], the “Bacterial Biotransformation” value is listed as “Compound metabolized”.
Take `CC#C[C@]1(O)CC[C@H]2[C@@H]3CCC4=CC(=O)CCC4=C3[C@@H](c3ccc(N(C)C)cc3)C[C@@]21C` [MIFEPRISTONE]: the “Bacterial Biotransformation” value in series [1] is reported as “Compound NOT metabolized”; in series [2], “Compound NOT metabolized”; in series [3], “Compound metabolized”; in series [4], “Compound metabolized”; in series [5], “Compound metabolized”; in series [6], “Compound NOT metabolized”. For the same compound, the “Bacterial Biotransformation” value in series [7] was “Compound NOT metabolized”.
In the case of `COc1c(C)c2c(c(O)c1C/C=C(\C)CCC(=O)OCCN1CCOCC1)C(=O)OC2` [MYCOPHENOLATE MOFETIL], the “Bacterial Biotransformation” value in series [1], in series [2], in series [3], in series [4], in series [5] and in series [6] was “Compound metabolized” in each case. In addition, in series [7], the “Bacterial Biotransformation” value is “Compound metabolized”.
Turning to `COc1ccc2[nH]c([S+]([O-])Cc3ncc(C)c(OC)c3C)nc2c1` (stereo not drawn) [OMEPRAZOLE], the “Bacterial Biotransformation” value in series [1], in series [2], in series [3], in series [4], in series [5] and in series [6] was “Compound metabolized” each time. Also, the “Bacterial Biotransformation” value in series [7] is given as “Compound metabolized”.
As for `Cc1nc2n(c(=O)c1CCN1CCC(c3noc4cc(F)ccc34)CC1)CCCC2O` (stereo not drawn) [PALIPERIDONE], the “Bacterial Biotransformation” value is “Compound NOT metabolized” in series [1]; “Compound metabolized” in series [2]; “Compound metabolized” in series [3]; “Compound NOT metabolized” in series [4]; “Compound metabolized” in series [5]; “Compound metabolized” in series [6]. The “Bacterial Biotransformation” value in series [7] is listed as “Compound metabolized”.
Consider `CNC(=C[N+](=O)[O-])NCCSCc1ccc(CN(C)C)o1` [RANITIDINE], for which the “Bacterial Biotransformation” value in series [1] is “Compound NOT metabolized”; in series [2], “Compound metabolized”; in series [3] it was “Compound metabolized”; in series [4] it was “Compound NOT metabolized”; in series [5], “Compound metabolized”; in series [6], “Compound metabolized”. The “Bacterial Biotransformation” value in series [7] was “Compound metabolized”.

Source of the values: ChEMBL document CHEMBL5303573, “Mapping human microbiome drug metabolism by gut bacteria and their genes” (Nature, 2019).
